Source: patent US8536175B2, “Quinoxaline carboxamide derivatives as protein tyrosine kinase inhibitors” (Novartis AG, priority 2008, dated 2013)

molecular target: FGFR3 kinase (Homo sapiens (Human), UniProt P22607, K650E); assay: FGFR3 kinase inhibition (protein kinase activity assays); format: biochemical; conditions: average of 2 independent measurements; * single value; read-out: FGFR3 IC50
Procedure: generic assay set-up: Enzyme activities were measured by mixing 10 μL of a 3-fold concentrated compound solution or control with 10 μL of the corresponding substrate mixture (peptidic substrate, ATP and [γ^33P]ATP). The reactions were initiated by addition of 10 μL of a 3-fold concentrated solution of the respective enzyme in assay buffer. […] Filter binding (FB) method: FB assays were carried out in 96-well plates at room temperature for 10 min in a finial volume of 30 μL including the components as indicated in section above. […] After spotting, vacuum was connected and each well rinsed with 200 μL 0.5% H3PO4. Free membranes were removed and washed 4 times on a shaker with 1% H3PO4 and once with ethanol. Membranes were dried and overlaid with addition of 10 μL/well of a scintillation fluid. The plates were eventually sealed and counted in a microplate scintillation counter. IC50 values were calculated by linear regression analysis of the percentage inhibition of the compound.
generic assay set-up: The assay has been run at room temperature on a liquid handling robot. […] After an incubation time of 45 min in the dark, the plates were transferred into a fluorescence reader for counting.
Compounds of formula (I) are assayed to measure their capacity to inhibit FGFR3 kinase as described above.

Sequence of FGFR3 kinase (P22607 23-806 K650E): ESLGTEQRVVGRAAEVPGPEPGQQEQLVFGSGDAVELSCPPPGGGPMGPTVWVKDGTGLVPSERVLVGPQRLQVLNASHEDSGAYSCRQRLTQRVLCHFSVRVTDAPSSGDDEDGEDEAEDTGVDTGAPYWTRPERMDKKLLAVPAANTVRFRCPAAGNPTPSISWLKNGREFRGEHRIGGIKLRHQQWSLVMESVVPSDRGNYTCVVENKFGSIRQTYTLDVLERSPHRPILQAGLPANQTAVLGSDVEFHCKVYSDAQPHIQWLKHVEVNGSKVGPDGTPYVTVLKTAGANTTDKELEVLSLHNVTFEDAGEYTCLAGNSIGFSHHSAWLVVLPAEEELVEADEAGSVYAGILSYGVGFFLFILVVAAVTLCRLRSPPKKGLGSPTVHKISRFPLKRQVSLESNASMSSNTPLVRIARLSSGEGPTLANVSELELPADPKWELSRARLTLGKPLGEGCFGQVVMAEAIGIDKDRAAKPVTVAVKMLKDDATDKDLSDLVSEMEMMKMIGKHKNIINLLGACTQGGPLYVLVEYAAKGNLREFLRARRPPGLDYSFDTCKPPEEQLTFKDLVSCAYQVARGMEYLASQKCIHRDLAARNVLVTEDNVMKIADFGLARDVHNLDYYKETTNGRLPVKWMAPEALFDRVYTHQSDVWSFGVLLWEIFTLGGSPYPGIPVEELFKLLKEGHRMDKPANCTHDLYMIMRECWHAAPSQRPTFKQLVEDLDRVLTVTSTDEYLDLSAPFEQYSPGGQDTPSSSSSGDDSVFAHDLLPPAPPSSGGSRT

SMILES | IC50 [nM]
Cc1cscc1-c1ccc(C(=O)Nc2nc(CN3CCN(C)CC3)c[nH]2)c2nccnc12 [Example 69, 8-(4-Methyl-thiophen-3-yl)-quinoxaline-5-carboxylic acid [4-(4-methyl-piperazin-1-ylmethyl)-1H-imidazol-2-yl]amide] | > 10000
CCN1CCN(Cc2ccc(NC(=O)c3ccc(-c4cc(C)c[n+]([O-])c4C)c4nccnc34)nc2)CC1 [Example 99, 8-(2,5-Dimethyl-1-oxy-pyridin-3-yl)-quinoxaline-5-carboxylic acid [5-(4-ethyl-piperazin-1-ylmethyl)-pyridin-2-yl]-amide] | > 10000
Cc1cccc(C)c1-c1ccc(C(=O)Nc2nc(CN3CCN(C)CC3)c[nH]2)c2nccnc12 [Example 77, 8-(2,6-Dimethyl-phenyl)-quinoxaline-5-carboxylic acid [4-(4-methyl-piperazin-1-ylmethyl)-1H-imidazol-2-yl]-amide] | > 10000
COc1cc(OC)c(Cl)c(-c2ccc(C(=O)Nc3nnc[nH]3)c3nccnc23)c1Cl [Example 17, 8-(2,6-Dichloro-3,5-dimethoxy-phenyl)-quinoxaline-5-carboxylic acid (4H-[1,2,4]triazol-3-yl)-amide] | > 10000

same assay, conditions: read-out: rating (FGFR3 kinase IC50)

SMILES | IC50 [nM]
CCN1CCN(c2ccc(NC(=O)c3ccc(-c4c(Cl)c(OC)cc(OC)c4Cl)c4nccnc34)cc2)CC1 [Example 1, 8-(2,6-Dichloro-3,5-dimethoxy-phenyl)-quinoxaline-5-carboxylic acid [4-(4-ethyl-piperazin-1-yl)-phenyl]-amide] | < 100
CCN1CCN(Cc2ccc(NC(=O)c3ccc(-c4cc(OC)cc(OC)c4)c4nccnc34)nc2)CC1 [Example 115, 8-(3,5-Dimethoxy-phenyl)-quinoxaline-5-carboxylic acid [5-(4-ethyl-piperazin-1-ylmethyl)-pyridin-2-yl]-amide] | 500 to 50000
CCN1CCN(Cc2ccc(NC(=O)c3ccc(-c4c(F)c(OC)cc(OC)c4F)c4nccnc34)cn2)CC1 [Example 88, 8-(2,6-Difluoro-3,5-dimethoxy-phenyl)-quinoxaline-5-carboxylic acid [6-(4-ethyl-piperazin-1-ylmethyl)-pyridin-3-yl]-amide] | < 100
COc1cc(OC)c(Cl)c(-c2ccc(C(=O)Nc3ccc(N4CCN(C(C)C)CC4)nc3)c3nccnc23)c1Cl [Example 33, 8-(2,6-Dichloro-3,5-dimethoxy-phenyl)-quinoxaline-5-carboxylic acid [6-(4-isopropyl-piperazin-1-yl)-pyridin-3-yl]-amide] | < 100
CCN1CCN(Cc2ccc(NC(=O)c3ccc(-c4c(Cl)c(OC)cc(OC)c4Cl)c4cccnc34)cn2)CC1 [Example 169, 5-(2,6-Dichloro-3,5-dimethoxy-phenyl)-quinoline-8-carboxylic acid [6-(4-ethyl-piperazin-1-ylmethyl)-pyridin-3-yl]-amide] | 100 to 500
COc1cc(OC)c(F)c(-c2ccc(C(=O)Nc3cccnc3)c3nccnc23)c1F [Example 90, 8-(2,6-Difluoro-3,5-dimethoxy-phenyl)-quinoxaline-5-carboxylic acid pyridin-3-ylamide] | 100 to 500
COc1cc(OC)c(Cl)c(-c2ccc(C(=O)Nc3ccc(CN4CCS(=O)(=O)CC4)cn3)c3nccnc23)c1Cl [Example 104, 8-(2,6-Dichloro-3,5-dimethoxy-phenyl)-quinoxaline-5-carboxylic acid [5-(1,1-dioxothiomorpholin-4-ylmethyl)-pyridin-2-yl]-amide] | 100 to 500
CCN1CCN(c2ccc(NC(=O)c3ccc(-c4c(Cl)c(OC)cc(OC)c4Cl)c4cccnc34)cc2)CC1 [Example 159, 5-(2,6-Dichloro-3,5-dimethoxy-phenyl)-quinoline-8-carboxylic acid [4-(4-ethyl-piperazin-1-yl)-phenyl]-amide] | < 100
COc1cc(OC)c(Cl)c(-c2ccc(C(=O)Nc3ccc(N(C)C4CCN(C)CC4)nc3)c3nccnc23)c1Cl [Example 37, 8-(2,6-Dichloro-3,5-dimethoxy-phenyl)-quinoxaline-5-carboxylic acid {6-[methyl-(1-methyl-piperidin-4-yl)-amino]-pyridin-3-yl}-amide] | < 100
COc1cc(OC)c(Cl)c(-c2ccc(C(=O)Nc3ccc(O)cc3)c3nccnc23)c1Cl [Example 7, 8-(2,6-Dichloro-3,5-dimethoxy-phenyl)-quinoxaline-5-carboxylic acid (4-hydroxyphenyl)-amide] | 500 to 50000
CCN1CCN(c2ccc(NC(=O)c3ccc(-c4c(C)cccc4C)c4nccnc34)cc2)CC1 [Example 72, 8-(2,6-Dimethyl-phenyl)-quinoxaline-5-carboxylic acid [4-(4-ethyl-piperazin-1-yl)-phenyl]-amide] | 500 to 50000
COc1cc(OC)c(Cl)c(-c2ccc(C(=O)Nc3nccn3Cc3ccccc3)c3ncccc23)c1Cl [Example 160, 5-(2,6-Dichloro-3,5-dimethoxy-phenyl)-quinoline-8-carboxylic acid (1-benzyl-1H-imidazol-2-yl)-amide] | 500 to 50000
COc1ccc(Cl)c(-c2ccc(C(=O)Nc3ccc(OCCN(C)C)cc3)c3nccnc23)c1 [Example 65, 8-(2-Chloro-5-methoxy-phenyl)-quinoxaline-5-carboxylic acid [4-(2-dimethylamino-ethoxy)-phenyl]-amide] | 500 to 50000
COc1cc(OC)c(Cl)c(-c2ccc(C(=O)Nc3ccc(OCCN(C)C)cc3)c3nccnc23)c1Cl [Example 5, 8-(2,6-Dichloro-3,5-dimethoxy-phenyl)-quinoxaline-5-carboxylic acid [4-(2-dimethylamino-ethoxy)-phenyl]-amide] | < 100
COc1cc(OC)c(Cl)c(-c2ccc(C(=O)Nc3cccnc3)c3ncc(N(C)CCN(C)C)nc23)c1Cl [Example 87, 8-(2,6-Dichloro-3,5-dimethoxy-phenyl)-2-[(2-dimethylamino-ethyl)-methylamino]-quinoxaline-5-carboxylic acid pyridin-3-ylamide] | 500 to 50000
COc1cc(OC)c(Cl)c(-c2ccc(C(=O)Nc3ccc(CN4CCN(C)CC4)nc3)c3ncccc23)c1Cl [Example 168, 5-(2,6-Dichloro-3,5-dimethoxy-phenyl)-quinoline-8-carboxylic acid [6-(4-methyl-piperazin-1-ylmethyl)-pyridin-3-yl]amide] | 100 to 500
COc1cc(OC)c(F)c(-c2ccc(C(=O)Nc3nc(CN4CCN(C)CC4)c[nH]3)c3nccnc23)c1F [Example 141, 8-(2,6-Difluoro-3,5-dimethoxy-phenyl)-quinoxaline-5-carboxylic acid [4-(4-methyl-piperazin-1-ylmethyl)-1H-imidazol-2-yl]-amide] | < 100
COc1cc(OC)c(F)c(-c2ccc(C(=O)Nc3ccc(CN4CCS(=O)(=O)CC4)cn3)c3nccnc23)c1F [Example 140, 8-(2,6-Difluoro-3,5-dimethoxy-phenyl)-quinoxaline-5-carboxylic acid [5-(1,1-dioxo-thiomorpholin-4-ylmethyl)-pyridin-2-yl]-amide] | < 100
COc1cc(OC)cc(-c2ccc(C(=O)Nc3ccc(CN4CCNCC4)cn3)c3nccnc23)c1 [Example 117] | 500 to 50000
COc1cc(OC)c(Cl)c(-c2ccc(C(=O)Nc3ccn(CCN(C)C)c3)c3nccnc23)c1Cl [Example 121, 8-(2,6-Dichloro-3,5-dimethoxy-phenyl)-quinoxaline-5-carboxylic acid [1-(2-dimethylamino-ethyl)-1H-pyrrol-3-yl]-amide] | 500 to 50000
